Results reported in patent US9518065B2, “IRAK inhibitors and uses thereof” (NIMBUS IRIS, INC., priority 2013, dated 2016).
Where two headings read alike, the source gives them in different places.

Legend:
[1] = molecular target: T1, IRAK4 (Homo sapiens, UniProt Q9NWZ3); assay: IRAK-4 activity inhibition assay (Caliper); assay type: biochemical; details: 3.5 nM IRAK4, 37 μM ATP, 1.5 μM Peptide 8
T1 construct: purchased CARNA Bioscience 09-145
T1 sequence (Q9NWZ3 1-460): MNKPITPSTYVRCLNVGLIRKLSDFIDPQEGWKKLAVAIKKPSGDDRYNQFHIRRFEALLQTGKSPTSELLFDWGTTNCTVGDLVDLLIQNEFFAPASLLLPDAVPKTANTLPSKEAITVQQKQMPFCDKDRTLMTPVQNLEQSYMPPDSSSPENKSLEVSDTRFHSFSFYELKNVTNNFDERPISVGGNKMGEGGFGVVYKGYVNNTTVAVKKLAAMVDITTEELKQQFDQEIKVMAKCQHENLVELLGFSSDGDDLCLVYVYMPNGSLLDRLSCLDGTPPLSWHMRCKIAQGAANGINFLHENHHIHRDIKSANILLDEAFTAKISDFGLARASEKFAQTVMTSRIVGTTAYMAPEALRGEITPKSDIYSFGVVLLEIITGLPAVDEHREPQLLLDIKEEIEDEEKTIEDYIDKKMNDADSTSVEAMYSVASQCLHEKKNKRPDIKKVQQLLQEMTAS
Protocol: A 1× kinase base buffer was prepared from 50 mM HEPES, pH 7.5 and 0.0015% Brij-35. A stop buffer was prepared from 100 mM HEPES, pH 7.5, 0.015% Brij-35, 0.2% Coating Reagent #3, and 50 mM EDTA.
Test compound was diluted to 50× of the final desired highest inhibitor concentration in reaction by 100% DMSO. 100 ul of this compound dilution was transferred to a well in a 96-well plate. For example, if desired highest inhibitor concentration in IC50 determination is 100 uM, then prepare 5000 uM of compound DMSO solution in this step.
Test compound was serially diluted by transferring 30 μl to 60 μl of 100% DMSO in the next well and so forth for a total of 10 concentrations. 100 μl of 100% DMSO was added to two empty wells for no compound control and no enzyme control in the same 96-well plate.
A new 96-well plate was marked as intermediate plate. 5 μl of compound serial dilution was transferred from source plate to the corresponding wells of the intermediate plate. 45 μl of 1× kinase base buffer (KB buffer) was added to each well of the intermediate plate. The intermediate plate was placed for 10 min on a shaker.
5 μl of each well was transferred from the 96-well intermediate plate to a 384-well plate in duplicates. For example, A1 of the 96-well plate is transferred to A1 and A2 of the 384-well plate. A2 of the 96-well plate is transferred to A3 and A4 of the 384-well plate, and so on.
IRAK4 and DTT in 1× kinase base buffer was added. The 2.5× enzyme mix contained 8.8 nM IRAK4 and 5 mM DTT.
Peptide 8, ATP, MgCl2 and MnCl2 were added in the 1× kinase base buffer. The 2.5× peptide mix contained 3.75 μM peptide 8, 92.5 μM ATP, 12.5 mM MgCl2 and 2.5 mM MnCl2.
Assay plate already contained 5 μl of compound in 10% DMSO. Added 10 μl of 2.5× enzyme solution to each well of the 384-well assay plate, except no enzyme control wells. The final concentration of IRAK4 in reaction was 3.5 nM. Added 10 μl of 1× kinase base buffer to no enzyme control wells in the assay plate. Incubated at room temperature for 10 min.
Added 10 μl of 2.5× peptide solution to each well of the 384-well assay plate. The final concentration of Peptide 8 and ATP was 1.5 μM and 37 μM, respectively. Incubated at 28° C. for 40 minutes. Added 25 μl of stop buffer to stop reaction. Collected data on Caliper.
Copied conversion % data from Caliper program. Converted conversion % values to percent inhibition values. Percent inhibition=(max-conversion %)/(max-min)*100, where “max” means the conversion % of DMSO control and “min” means the conversion % of no enzyme control.
The compound numbers correspond to the compound numbers in Table 1. Compounds having an activity designated as “A” provided an IC50≦1 μM; compounds having an activity designated as “B” provided an IC50 of 1-5 μM; compounds having an activity designated as “C” provided an IC50 of ≧5 μM. “NA” stands for “not assayed.”

[2] = system: TNFα and IL8 production in THP-1 cells; assay: LPS induced cytokine (TNFα and IL8) production assay in THP-1 cells; assay type: cell-based; details: Homo sapiens, 300 ng/mL LPS
Protocol: Provided compounds were also assayed in an LPS (Lipopolysacharide) or R848 (TLR-7 agonist) induced cytokine (TNFα and IL8) production assay in THP-1 cells, human white blood cells (hWBC), and whole blood. The exemplary protocol for this assay in THP-1 cells was as follows below.
THP-1 cells from ATCC (TIB-202) were cultured in RPMI Medium 1640 (Invitrogen, Cat No. A10491-01), 10% fetal bovine serum (Invitrogen, Cat No. 10099141, Lot No. 8172882) containing 100 U/mL Penicillin, 100 μg/mL streptomycin (Invitrogen, Cat No. 15140-122), and 50 uM 2-Mercaptoethanol (Invitrogen, Cat No. 21985023). LPS-EK ultra pure (Invivogen, Cat No. tlrl-peklps) was used to induce IL8 and TNFα production, that was detected in the cell culture supernatant by IL8 HTRF kit (Cisbio, Cat No. 62IL8PEB) and TNFα HTRF kit (Cisbio, Cat No. 62TNFPEB), as per manufacturer instructions. Cells were cultured in 96 well assay plates at 100,000 cells per well, and compounds diluted in final 0.3% DMSO were pre-incubated with cells for 1 hour prior to stimulation with 300 ng/mL LPS. Cytokine production in cell supernatant was measured at 5 hours for TNFα and IL8 production, and for 16 hours for IL8 production and assessment of cell viability.
The compound numbers correspond to the compound numbers in Table 1. […] “NA” stands for “not assayed.”

[3] = 5 hours, read-out: TNFα production IC50
[4] = 16 hours, read-out: IL8 (16 h) production IC50

| Compound | IC50 [1] | IC50 [2, 3] | IC50 [2, 4] |
| --- | --- | --- | --- |
| CCc1nc2c(N[C@H]3CC[C@H](N4CCOCC4)CC3)nc(Nc3cnn(CCO)c3)nc2s1 [Compound I-29, 2-(4-((2-ethyl-7-(((1r,4r)-4-morpholinocyclohexyl)-amino)thiazolo[5,4-d]pyrimidin-5-yl)amino)-1H-pyrazol-1-yl)ethan-1-ol] | ≤ 1 µM | ≥ 0.5 µM | ≤ 0.25 µM |
| Cc1nc2c(N[C@H]3CC[C@H](N4CCC(O)CC4)CC3)nc(Nc3cnn(C)c3)nc2s1 [Compound I-30, 1-((1r,4r)-4-((2-methyl-5-((1-methyl-1H-pyrazol-4-yl)amino)thiazolo[5,4-d]pyrimidin-7-yl)amino)cyclohexyl)piperidin-4-ol] | ≤ 1 µM | ≥ 0.5 µM |  |
| CCc1nc2c(N[C@H]3CC[C@H](N4CCOCC4)CC3)nc(Nc3cnn(C4CCC(O)CC4)c3)nc2s1 (some centres unmarked) [Compound I-32, 4-(4-((2-ethyl-7-(((1r,4r)-4-morpholinocyclohexyl)-amino)thiazolo[5,4-d]pyrimidin-5-yl)amino)-1H-pyrazol-1-yl)cyclohexan-1-ol] | ≤ 1 µM | ≤ 0.25 µM | ≤ 0.25 µM |
| CCc1nc2c(N[C@H]3CC[C@H](N4CCC5(CC4)CC5)CC3)nc(Nc3cnn(CCOCCO)c3)nc2s1 [Compound I-33, 2-(2-(4-((7-(((1r,4r)-4-(6-azaspiro[2.5]octan-6-yl)cyclohexyl)-amino)-2-ethylthiazolo[5,4-d]pyrimidin-5-yl)amino)-1H-pyrazol-1-yl)ethoxy)ethan-1-ol] | ≤ 1 µM | ≤ 0.25 µM | ≤ 0.25 µM |
| CCc1nc2c(N[C@H]3CC[C@H](N4CCOCC4)CC3)nc(Nc3cnn(CCOC)c3)nc2s1 [Compound I-34, 2-ethyl-N5-(1-(2-methoxyethyl)-1H-pyrazol-4-yl)-N7-((1r,4r)-4-morpholinocyclohexyl)thiazolo[5,4-d]pyrimidine-5,7-diamine] | ≤ 1 µM | ≤ 0.25 µM | ≤ 0.25 µM |
| CC(O)c1nc2c(N[C@H]3CC[C@H](N4CCOCC4)CC3)nc(Nc3cnn(C)c3)nc2s1 (some centres unmarked) [Compound I-35, 1-(5-((1-methyl-1H-pyrazol-4-yl)amino)-7-(((1r,4r)-4-morpholino-cyclohexyl)amino)thiazolo[5,4-d]pyrimidin-2-yl)ethan-1-ol] | ≤ 1 µM | ≥ 0.5 µM | ≥ 0.5 µM |
| CCn1cc(Nc2nc(N[C@H]3CC[C@H](N4CCOCC4)CC3)c3nc(C)sc3n2)cn1 [Compound I-36, N5-(1-ethyl-1H-pyrazol-4-yl)-2-methyl-N7-((1r,4r)-4-morpholinocyclohexyl)thiazolo[5,4-d]pyrimidine-5,7-diamine] | ≤ 1 µM | 0.25 to 0.5 µM | ≤ 0.25 µM |
| Cn1cc(Nc2nc(N[C@H]3CC[C@H](N4CCOCC4)CC3)c3nc(CO)sc3n2)cn1 [Compound I-37, (5-((1-methyl-1H-pyrazol-4-yl)amino)-7-(((1r,4r)-4-morpholino-cyclohexyl)amino)thiazolo[5,4-d]pyrimidin-2-yl)methanol] | ≤ 1 µM | ≥ 0.5 µM | ≥ 0.5 µM |
| Cc1nc2c(N[C@H]3CC[C@H](N4CCOCC4)CC3)nc(Nc3cnn(CCCS(C)(=O)=O)c3)nc2s1 [Compound I-38, 2-methyl-N5-(1-(3-(methylsulfonyl)propyl)-1H-pyrazol-4-yl)-N7-((1r,4r)-4-morpholinocyclohexyl)thiazolo[5,4-d]pyrimidine-5,7-diamine] | ≤ 1 µM | ≥ 0.5 µM | 0.25 to 0.5 µM |
| Cc1nc2c(N[C@H]3CC[C@H](N4CCC5(CC4)CC5)CC3)nc(Nc3cnn(C)c3)nc2s1 [Compound I-39, N7-((1r,4r)-4-(6-azaspiro[2.5]octan-6-yl)cyclohexyl)-2-methyl-N5-(1-methyl-1H-pyrazol-4-yl)thiazolo[5,4-d]pyrimidine-5,7-diamine] | ≤ 1 µM | 0.25 to 0.5 µM | 0.25 to 0.5 µM |
| Cc1nc2c(N[C@H]3CC[C@H](N4CCOCC4)CC3)nc(Nc3cnn(CCS(C)(=O)=O)c3)nc2s1 [Compound I-40, 2-methyl-N5-(1-(2-(methylsulfonyl)ethyl)-1H-pyrazol-4-yl)-N7-((1r,4r)-4-morpholinocyclohexyl)thiazolo[5,4-d]pyrimidine-5,7-diamine] | ≤ 1 µM | ≤ 0.25 µM | 0.25 to 0.5 µM |
| Cc1nc2c(N[C@H]3CC[C@H](N4CCC5(CC4)COC5)CC3)nc(Nc3cnn(C)c3)nc2s1 [Compound I-42, N7-((1r,4r)-4-(2-oxa-7-azaspiro[3.5]nonan-7-yl)cyclohexyl)-2-methyl-N5-(1-methyl-1H-pyrazol-4-yl)thiazolo[5,4-d]pyrimidine-5,7-diamine] | ≤ 1 µM | 0.25 to 0.5 µM | 0.25 to 0.5 µM |
